Measured values taken from the NIST ThermoML archive (doi:10.1021/je049612f).

Conditions: Gas, Vibrating wire viscometry

FS(F)(F)(F)(F)F [sulfur hexafluoride]
Conditions | viscosity [mPa·s]
333.15 K, 506.6 kPa | 0.01693
333.15 K, 547.64 kPa | 0.01694
333.15 K, 590.65 kPa | 0.01695
333.15 K, 636.15 kPa | 0.01697
333.15 K, 671.18 kPa | 0.01698
333.15 K, 717.74 kPa | 0.017
333.15 K, 772.31 kPa | 0.01703
333.15 K, 837.79 kPa | 0.01705
333.15 K, 887.92 kPa | 0.01708
333.15 K, 946.43 kPa | 0.0171
333.15 K, 1025.7 kPa | 0.01715
333.15 K, 1092.5 kPa | 0.01718
333.15 K, 1167.4 kPa | 0.01723
333.15 K, 1233.2 kPa | 0.01727
333.15 K, 1307.8 kPa | 0.01732
333.15 K, 1366.9 kPa | 0.01737
333.15 K, 1419.7 kPa | 0.0174
333.15 K, 1502.8 kPa | 0.01746
333.15 K, 1566.4 kPa | 0.01751
333.15 K, 1629.7 kPa | 0.01757
333.15 K, 1705.8 kPa | 0.01763
333.15 K, 1772.9 kPa | 0.01769
333.15 K, 1853.5 kPa | 0.01778
333.15 K, 1917.4 kPa | 0.01783
333.15 K, 1967 kPa | 0.0179
333.15 K, 2025.7 kPa | 0.01795
333.15 K, 2294.7 kPa | 0.01828
333.15 K, 2427.7 kPa | 0.01848
333.15 K, 2519.2 kPa | 0.01862
333.15 K, 2631.9 kPa | 0.0188
333.15 K, 2766.3 kPa | 0.01904
333.15 K, 2872 kPa | 0.01925
333.15 K, 3008.3 kPa | 0.01955
333.15 K, 3089.4 kPa | 0.01973
333.15 K, 3195.2 kPa | 0.02001
333.15 K, 3306.1 kPa | 0.02032
333.15 K, 3398.7 kPa | 0.0206
333.15 K, 3504 kPa | 0.02097
333.15 K, 3605.1 kPa | 0.02135
333.15 K, 3722 kPa | 0.02185
333.15 K, 3815.4 kPa | 0.02229
333.15 K, 3932.1 kPa | 0.02291
333.15 K, 4050.8 kPa | 0.0237
333.15 K, 4148.2 kPa | 0.02445
333.15 K, 4239.9 kPa | 0.02524
333.15 K, 4328.2 kPa | 0.02616
333.15 K, 4406.9 kPa | 0.02715
333.15 K, 4479.7 kPa | 0.02819
333.15 K, 4549.6 kPa | 0.02938
333.15 K, 4612.3 kPa | 0.03054
333.15 K, 4671.8 kPa | 0.03186
333.15 K, 4725.8 kPa | 0.03331
333.15 K, 4776.6 kPa | 0.03476
333.15 K, 4828.1 kPa | 0.03629
333.15 K, 4880.1 kPa | 0.03801
333.15 K, 4933.2 kPa | 0.03982
333.15 K, 4991.6 kPa | 0.0419
333.15 K, 5049 kPa | 0.04395
333.15 K, 5109.4 kPa | 0.04603
333.15 K, 5178.8 kPa | 0.04833
333.15 K, 5254.9 kPa | 0.05072
333.15 K, 5343.6 kPa | 0.05331
333.15 K, 5447.5 kPa | 0.0561
333.15 K, 5567.4 kPa | 0.05883
333.15 K, 5709.9 kPa | 0.06196
333.15 K, 5869.5 kPa | 0.06483
333.15 K, 6098.2 kPa | 0.0687
333.15 K, 6338.2 kPa | 0.07217
333.15 K, 6627.7 kPa | 0.07584
333.15 K, 6950.6 kPa | 0.07952
333.15 K, 7378.3 kPa | 0.08395
333.15 K, 7900 kPa | 0.08869
333.15 K, 8519.8 kPa | 0.09355
333.15 K, 9106.8 kPa | 0.09795
333.15 K, 9802 kPa | 0.1027
333.15 K, 10465 kPa | 0.1067
333.15 K, 11412 kPa | 0.1122
333.15 K, 12565 kPa | 0.1183
350 K, 64.67 kPa | 0.01753
350 K, 96.54 kPa | 0.01755
350 K, 117.61 kPa | 0.01755
350 K, 143.77 kPa | 0.01756
350 K, 170.68 kPa | 0.01756
350 K, 204.56 kPa | 0.01758
350 K, 238.01 kPa | 0.01759
